In patent publication US6365619B1, “Treatment of arteriosclerosis” (Novartis AG, priority 1999, dated 2002):

Experiments:
[1] = test system: neointimal formation in a mouse model of carotid artery transplantation; assay: Murine carotid artery loop transplantation: neointimal formation (transplant-associated arteriosclerosis); assay type: in vivo; settings: mean±SD
Text: The effect of compound 369 (VLA-4 antagonist) and compound 741 (VCAM-1 inhibitor) on the development of transplant-associated arteriosclerosis as measured by neointimal formation in a mouse model of carotid artery transplantation is investigated as mono-, combined, and tolerance induction therapy. Grafts are harvested at 30 days post-transplantation.
A murine model of accelerated transplant arteriosclerosis is used. Carotid arteries are allografted from B10.A (2R) to B10.BR mice, a commercially available strain combination that consistently results in neointimal formation 30 days after transplantation. The procedure is performed on anesthetized mice under a surgical dissecting microscope. A midline incision is made on the ventral side of neck from the suprasternal notch to the chin. The left carotid artery is gently dissected from the bifurcation in the distal end toward the proximal end as far as is technically possible. The artery is then occluded with two microvascular clamps, one at each end, and two longitudinal arteriotomies (0.5 to 0.6 mm) are made with a fine needle and scissors. In the donor mouse both the left and right carotid arteries are fully dissected from the arch to the bifurcation. The graft is then transplanted paratopically into the recipient in an end-to-side anastamosis with 11/0 continuous suture, and the skin incision is closed with a 5/0 interrupted suture. […] Vascular grafts are harvested 30 days after transplantation, a point at which a fully developed, nearly occlusive neointima is formed.
Compound 369: In the monotherapy experiments, compound 369 is administered three times per day subcutaneously (s.c.) for a total daily dose of 90 mg/kg/day.
Compound 741: Compound 741 is administered continuously via alzet pump in a dose of 5.0, 1.0, and 0.5 mg/kg/day, respectively.
Anti VLA-4 Mab: The anti VLA-4 antibody is administered 100 μg/mouse/d i.p.
A fixed dose of compound 369 is given as a total daily dose of 60 mg/kg/day s.c. and compound 741 is administered continuously via alzet pump at a dose of 5.0, 1.0, and 0.5 mg/kg/day, respectively.
Compound 369 (60 mg/kg/d) and compound 741 (5 mg/kg/d) are given simultaneously for the first 10 days only.
In all cases, allografts are harvested at day 30. […]
Morphometrical analysis is performed on VerHoeff stained paraffin sections using a computer-assisted image analysis system. The areas of the neointima are measured by computerized planimetry of sections obtained approximately 150, 300, and 450 μm from the center of the graft.
Data from morphometric analyses are reported as the neointima area on cross-section determined by subtracting the new lumen area measurement from the internal elastic lamina (IEL) area measurement for each animal. […]

[2] = Dissolution of compound 741 in dosing vehicle; assay type: physicochemical; settings: 1:1 mixture of CsA placebo solution (Cremphor, ethanol) and propylene glycol
Procedure: Compound 741 is dissolved in a 1:1 mixture of CsA placebo solution (each mL contains 650 mg of Cremphor and 32.9% ethanol) and propylene glycol. Compound 741 is very soluble in this mixture and the final solution is clear.

SMILES	neointima area on cross-section ([1]; monotherapy compound 369 90 mg/kg/d s.c. (three times per day), allograft harvested day 30)	neointima area on cross-section ([1]; monotherapy Cmpd.741 0.5 mg/kg/d continuously via alzet pump, allograft harvested day 30)	neointima area on cross-section ([1]; monotherapy Cmpd.741 1 mg/kg/d continuously via alzet pump, allograft harvested day 30)	neointima area on cross-section ([1]; monotherapy Cmpd.741 5 mg/kg/d continuously via alzet pump, B10.A (2R) to B10.BR allograft harvested day 30)	solubility [2]
COCCCN(CC(=O)N[C@@H](CC(=O)O)c1ccc(OC)c(OC)c1)C(=O)Cc1ccc(NC(=O)Nc2ccccc2C)cc1 [Cmpd.369, (S)-β-[3-Methoxypropyl)[[4-[(2-methylphenylaminocarbonylamino)-phenyl]acetyl]amino]acetylamino-3,4-dimethoxy-benzenepropanoic Acid]	19,874 μm^2				
CCCCC(C)CC1NC(=O)C(Cc2cn(OC)c3ccccc23)N(C)C(=O)C(CC(C)C)NC(=O)C(CC(C)C)N(C)C(=O)C(CC(C)CCCC)NC(=O)C(CCC(=O)OCCC)OC(=O)C(C)N(C)C1=O (centres unmarked) [Cmpd.741]		30,926 μm^2	32,249 μm^2	18,804 μm^2	very soluble
